% of control and % of inhibition data for six compounds are collected here from ChEMBL document CHEMBL5465560, “Selectivity Literature for EUbOPEN Chemogenomic Library” (2024).

Assay [1] concerns the target Cyclin-dependent kinase 15 (Homo sapiens) (UniProt Q96Q40). The conditions noted are these: at 10 µM.
Assay [2] deals with T1, Serine/threonine-protein kinase TBK1 (Homo sapiens) (UniProt Q9UHD2).
T1 sequence (whole entry): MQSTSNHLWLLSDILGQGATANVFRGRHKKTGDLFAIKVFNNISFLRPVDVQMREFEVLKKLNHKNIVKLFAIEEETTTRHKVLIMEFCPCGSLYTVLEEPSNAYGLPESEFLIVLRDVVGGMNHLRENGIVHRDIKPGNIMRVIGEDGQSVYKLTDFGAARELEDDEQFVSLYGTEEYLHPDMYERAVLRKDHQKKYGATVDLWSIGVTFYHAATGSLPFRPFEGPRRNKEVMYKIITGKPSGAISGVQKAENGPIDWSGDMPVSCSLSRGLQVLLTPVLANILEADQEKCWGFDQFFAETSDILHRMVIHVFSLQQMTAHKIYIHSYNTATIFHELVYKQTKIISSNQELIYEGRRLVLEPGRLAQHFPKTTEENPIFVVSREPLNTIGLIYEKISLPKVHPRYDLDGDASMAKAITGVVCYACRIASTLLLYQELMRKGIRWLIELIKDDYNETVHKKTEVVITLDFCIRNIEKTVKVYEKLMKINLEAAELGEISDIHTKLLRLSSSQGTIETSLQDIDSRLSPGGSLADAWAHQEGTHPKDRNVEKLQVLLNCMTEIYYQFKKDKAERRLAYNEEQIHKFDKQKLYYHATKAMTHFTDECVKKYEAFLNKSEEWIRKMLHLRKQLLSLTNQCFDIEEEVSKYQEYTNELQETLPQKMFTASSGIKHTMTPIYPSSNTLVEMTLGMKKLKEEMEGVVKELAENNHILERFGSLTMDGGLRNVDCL
Briefly: Selectivity interaction (Ambit KINOMEscan and KiNATiv profiling in Jurkat cells) EUB0000090b TBK1. The conditions noted are these: at 1 µM. It is filed as cell-based.

The target of assay [3] is Calcium/calmodulin-dependent protein kinase kinase 2 (Homo sapiens) (UniProt Q96RR4). The assay can be described thus: Selectivity interaction (LanthaScreen Eu Kinase Binding Assay) EUB0001632a CAMKK2. The conditions noted are these: at 10 µM. For orientation: Time-resolved FRET reads energy transfer from a long-lived donor to a nearby acceptor.
Assay [4] addresses Dual specificity protein kinase CLK2 (Homo sapiens, UniProt P49760). Briefly: Selectivity interaction (KinomeScan (DiscoverX)) EUB0000607a CLK2. The conditions noted are these: at 10 µM.
Assay [5] addresses T2, Serine/threonine-protein kinase ULK1 (Homo sapiens) (UniProt O75385).
T2 sequence (whole entry): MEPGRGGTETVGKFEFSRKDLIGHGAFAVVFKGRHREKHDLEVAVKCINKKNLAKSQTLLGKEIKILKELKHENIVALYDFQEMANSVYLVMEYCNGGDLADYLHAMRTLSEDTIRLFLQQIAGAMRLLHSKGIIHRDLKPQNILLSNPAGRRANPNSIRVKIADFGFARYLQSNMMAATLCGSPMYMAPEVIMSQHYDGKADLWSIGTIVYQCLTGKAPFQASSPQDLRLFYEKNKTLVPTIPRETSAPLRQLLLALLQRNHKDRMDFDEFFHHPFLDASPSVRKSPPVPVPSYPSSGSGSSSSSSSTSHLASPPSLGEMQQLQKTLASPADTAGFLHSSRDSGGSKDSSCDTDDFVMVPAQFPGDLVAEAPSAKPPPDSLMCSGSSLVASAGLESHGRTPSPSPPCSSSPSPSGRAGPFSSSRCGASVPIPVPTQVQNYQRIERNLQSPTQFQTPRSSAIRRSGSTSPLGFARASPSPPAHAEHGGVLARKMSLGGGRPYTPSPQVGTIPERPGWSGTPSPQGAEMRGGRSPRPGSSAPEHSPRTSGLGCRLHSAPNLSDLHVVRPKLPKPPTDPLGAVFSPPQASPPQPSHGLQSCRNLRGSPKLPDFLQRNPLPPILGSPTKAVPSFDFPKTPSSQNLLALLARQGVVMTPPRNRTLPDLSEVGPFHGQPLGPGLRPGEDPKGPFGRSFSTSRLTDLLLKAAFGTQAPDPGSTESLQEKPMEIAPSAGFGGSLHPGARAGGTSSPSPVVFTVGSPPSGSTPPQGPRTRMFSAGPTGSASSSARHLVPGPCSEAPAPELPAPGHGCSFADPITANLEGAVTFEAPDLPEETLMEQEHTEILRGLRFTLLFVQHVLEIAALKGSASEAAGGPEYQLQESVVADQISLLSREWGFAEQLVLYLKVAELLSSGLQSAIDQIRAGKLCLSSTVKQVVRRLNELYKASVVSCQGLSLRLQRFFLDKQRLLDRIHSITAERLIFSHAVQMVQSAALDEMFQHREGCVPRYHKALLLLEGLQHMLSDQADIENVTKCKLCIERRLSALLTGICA
The assay can be described thus: Selectivity interaction (ActivX KiNativ screen (kinase selectivity in THP-1 cell lysates)) EUB0000639a ULK1. Format: subcellular. The conditions noted are these: lysate, at 0.04 µM.

Assay [6] deals with Casein kinase II subunit alpha (Homo sapiens, UniProt P68400). The assay can be described thus: Selectivity interaction (Kinase panel (literature)) EUB0001199aCl CSNK2A1. The conditions noted are these: at 1 µM.
Casein kinase II subunit alpha, sequence (P68400 whole entry, looked up): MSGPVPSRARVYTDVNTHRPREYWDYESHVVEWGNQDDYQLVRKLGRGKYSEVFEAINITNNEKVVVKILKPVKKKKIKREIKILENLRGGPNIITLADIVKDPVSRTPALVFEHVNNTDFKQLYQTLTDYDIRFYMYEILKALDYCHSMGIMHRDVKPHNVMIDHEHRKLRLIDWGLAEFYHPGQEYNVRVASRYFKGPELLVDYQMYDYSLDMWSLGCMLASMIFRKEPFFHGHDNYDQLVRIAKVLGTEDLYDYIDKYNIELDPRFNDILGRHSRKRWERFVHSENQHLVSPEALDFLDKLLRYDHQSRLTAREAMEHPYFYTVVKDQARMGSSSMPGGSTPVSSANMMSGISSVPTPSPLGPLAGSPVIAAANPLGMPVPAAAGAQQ

Cyclin-dependent kinase 15 (Homo sapiens), sequence (Q96Q40 whole entry): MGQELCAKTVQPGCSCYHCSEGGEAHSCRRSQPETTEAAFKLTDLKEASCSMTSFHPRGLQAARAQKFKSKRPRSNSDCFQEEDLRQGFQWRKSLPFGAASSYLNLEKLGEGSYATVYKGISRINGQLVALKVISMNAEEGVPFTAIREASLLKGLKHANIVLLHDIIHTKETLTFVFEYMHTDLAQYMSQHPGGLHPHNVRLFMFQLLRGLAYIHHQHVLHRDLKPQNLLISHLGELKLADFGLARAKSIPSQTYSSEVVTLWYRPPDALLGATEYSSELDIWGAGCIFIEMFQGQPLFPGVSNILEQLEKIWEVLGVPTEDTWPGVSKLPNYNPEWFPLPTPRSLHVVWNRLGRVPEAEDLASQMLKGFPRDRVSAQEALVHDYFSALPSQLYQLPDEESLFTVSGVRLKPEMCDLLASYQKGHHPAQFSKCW
Dual specificity protein kinase CLK2, sequence (P49760 whole entry, looked up): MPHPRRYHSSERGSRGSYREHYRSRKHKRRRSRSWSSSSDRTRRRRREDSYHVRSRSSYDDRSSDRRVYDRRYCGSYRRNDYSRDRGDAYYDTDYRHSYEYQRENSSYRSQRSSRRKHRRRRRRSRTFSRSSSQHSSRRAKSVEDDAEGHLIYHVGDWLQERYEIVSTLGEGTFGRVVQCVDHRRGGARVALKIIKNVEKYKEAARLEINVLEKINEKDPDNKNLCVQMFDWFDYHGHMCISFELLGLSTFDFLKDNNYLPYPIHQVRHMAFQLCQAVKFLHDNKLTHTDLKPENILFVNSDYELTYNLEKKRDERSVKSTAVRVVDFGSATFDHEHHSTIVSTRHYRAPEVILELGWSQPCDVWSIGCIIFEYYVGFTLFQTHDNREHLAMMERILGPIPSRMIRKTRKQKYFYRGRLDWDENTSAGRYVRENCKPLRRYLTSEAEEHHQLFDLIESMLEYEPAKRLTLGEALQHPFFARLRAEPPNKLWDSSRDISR
Calcium/calmodulin-dependent protein kinase kinase 2 (Homo sapiens), sequence (Q96RR4 2-588 limits assumed): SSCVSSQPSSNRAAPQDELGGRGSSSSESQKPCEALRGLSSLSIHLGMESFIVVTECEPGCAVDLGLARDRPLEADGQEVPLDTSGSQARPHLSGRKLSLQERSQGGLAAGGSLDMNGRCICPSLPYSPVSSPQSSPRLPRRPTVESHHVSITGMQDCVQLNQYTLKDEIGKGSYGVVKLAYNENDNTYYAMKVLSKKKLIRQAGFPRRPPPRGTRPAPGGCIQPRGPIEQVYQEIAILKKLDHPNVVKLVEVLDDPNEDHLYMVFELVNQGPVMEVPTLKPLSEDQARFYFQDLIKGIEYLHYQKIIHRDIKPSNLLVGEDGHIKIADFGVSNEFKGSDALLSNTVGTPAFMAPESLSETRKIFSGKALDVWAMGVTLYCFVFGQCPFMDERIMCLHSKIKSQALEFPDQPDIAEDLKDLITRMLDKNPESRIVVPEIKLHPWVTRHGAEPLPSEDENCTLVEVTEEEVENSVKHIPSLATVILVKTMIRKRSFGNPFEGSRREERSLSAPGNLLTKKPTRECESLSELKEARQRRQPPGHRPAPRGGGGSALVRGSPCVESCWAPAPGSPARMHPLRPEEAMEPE

Compound `Cc1cc([C@@H](C)Nc2ccccc2C(=O)O)c2nc(N3CCOCC3)cc(=O)n2c1` [AZD-6482] returned a % of control in assay [1] of 100%.
`CN(C)C/C=C/C(=O)Nc1ccc(C(=O)N2CCCC(Nc3ncc(Cl)c(-c4c[nH]c5ccccc45)n3)C2)cc1` (stereo unspecified) returned a % of control in assay [2] of 96%.
For `Cn1cc(-n2cnc3c(NCc4nc5cc(Cl)c(Cl)cc5[nH]4)nc(N4CCOCC4)nc32)cn1`, the % of inhibition in assay [3] was -0.213%.
The compound `CNC(=O)Nc1ccc(-c2nc(N3CC4CCC(C3)O4)c3cnn(C4CCC5(CC4)OCCO5)c3n2)cc1` returned a % of control in assay [4] of 98%.
On to `CC[C@@H]1[C@H](F)C(=O)N[C@@H]1COc1nccc2cc(C(N)=O)c(OC)cc12` [ZIMLOVISERTIB], for which the % of inhibition in assay [5] was -12.7%.
For the compound `CN1Cc2nccc(-c3cn(C)nc3-c3ccc(F)cc3)c2C1=O`, the % of inhibition in assay [6] was -3%.
